Data taken from PMC5154303, “Flavonol and imidazole derivatives block HPV16 E6 activities and reactivate apoptotic pathways in HPV^+ cells” (Cell Death & Disease, 2016).
Read-outs that look alike come from different tables or passages of the source.

What was measured:
[1] = target: GST-caspase 8/His-caspase 8 (Homo sapiens, UniProt Q14790); experiment: AlphaScreen counter-screen GST-caspase 8/His-caspase 8; format: binding
Experimental: (§1) Figure 2 3-(1H-indol-1yl)propan-1-amine (1), three benzimidazole derivatives (2–4), and spinacine (5) inhibit protein–protein interactions. Five compounds at the indicated concentrations (1.4 μM–3.2 mM) were tested using our bead-based screening assay for their ability to inhibit three different protein/protein interactions: (a) GST-E6/His-caspase 8; (b) GST-E6/HisE6AP; and (c) GST-caspase 8/His-caspase 8. Binding in the presence of 1.4 μM of the test compound was set at 100%. Experiments were performed in triplicate, and error bars indicate the S.D.
To ask whether this inhibition was specific, we employed a counter-screening assay in which we assessed the ability of candidates to inhibit the binding of GST-caspase 8 to His-caspase 8; those that did were to be eliminated. In this counter-screening assay, the materials in each well were the same as in the primary screen, with the exception that GST-caspase 8 replaced GST-E6.
(§2) AlphaScreen Technology was used to assess the interactions between GST-E6, GST-caspase 8, His-E6AP, and His-caspase 8. Binding assays were performed in white 384-well plates (Perkin-Elmer) in a total volume of 25 μl as previously described.[33] Briefly, 5 μl (50 ng) of GST-E6 and 5 μl (87.5 ng) of His-caspase 8 were included in each reaction mixture with 5 μl blocking buffer (0.5 mg BSA, 0.5% Tween 20 in PBS) in the absence or presence of 10 μM of each test chemical. Members of the library were present at 10 μM in DMSO. After a 1-h incubation of the mixture at room temperature, 5 μl donor beads and 5 μl acceptor beads (Perkin-Elmer) were added to each well according to the manufacturer's protocol. The mixture was incubated in the dark at room temperature overnight, and the emitted signal was detected using the Envision Multilabel plate reader (Perkin-Elmer). In the presence of test chemicals, the binding affinity was calculated as a percentage of the binding in the presence of carrier only (DMSO).

GST-E6/His-caspase 8 = target: T1, GST-E6/His-caspase 8 (Human papillomavirus type 16, UniProt P03126); experiment: AlphaScreen bead-based binding assay GST-E6/His-caspase 8; design: species or system HPV 16; settings: for EC50 for GST-E6/His-caspase 8 interaction: bead-based assay, 1.4 μM–3.2 mM tested
T1 construct: made in house
Experimental: as §1
(§3) The construction of the pGEX-E6, pTriEx-E6AP, and pTriEx-Caspase-8 DED plasmids has been reported.[33] Expression and purification of GSTE6, His-E6AP, and His-Caspase-8 DED were carried out as previously described.[33], [37] GST-tagged and His-tagged proteins were diluted into GST dilution buffer (PBS pH 8.0, 5% glycerol, 2 mM DTT) and His dilution buffer (20 mM Hepes pH 7.4, 150 mM NaCl, 2 mMKCl, 5% glycerol, 2 mM DTT), respectively. Protein concentration was measured using Coomassie Plus – The Better Bradford Assay Reagent (Thermo Scientific, Waltham, MA, USA). Purity of the isolated proteins was estimated following separation by sodium dodecyl sulfate-polyacrylamide gel electrophoresis (SDS-PAGE) and Coomassie staining.
as §2

GST-E6/His-E6AP = target: T2, GST-E6/His-E6AP (Human papillomavirus type 16, UniProt P03126); experiment: AlphaScreen bead-based binding assay GST-E6/His-E6AP; design: species or system HPV 16; settings: for EC50 for GST-E6/His-E6AP interaction: bead-based assay, 1.4 μM–3.2 mM tested
T2 construct: made in house
Experimental: as §1, §3, §2

SiHa cells = experiment: TRAIL-induced apoptosis in SiHa cells (MTT); format: cell-based, human; settings: SiHa cells, compound 4 h prior to TRAIL 100 ng/ml + cycloheximide 5 μg/ml, overnight, MTT
Experimental: Figure 3 (a) HPV^+ SiHa cells are resistant to TRAIL-induced apoptosis as compared with the human osteosarcoma cell line U2OS. Cells (2 × 10^4 cells per well) were seeded into a 96-well plate, allowed to incubate overnight, and then treated with the indicated concentration of TRAIL in the presence of cycloheximide (5 μg/ml). The viability of cells was measured after overnight incubation using the MTT assay; the viability of cells untreated with TRAIL was set at 100% for each group. (b) The indicated concentrations of three small molecules were added to SiHa cells, and an MTT assay was preformed after overnight incubation. The viability of cells untreated with small molecules was set as 100%. (c) The indicated concentrations of myricetin or spinacine were added 4 h prior to TRAIL (100 ng/ml) in the presence of cycloheximide (5 μg/ml) and incubated at 37 °C overnight. The viability of cells untreated with small molecules was set at 100%. (d and e) SiHa cells (2 × 10^4 cells per well) were seeded into a 96-well plate and allowed to incubate overnight. In all, 100 μM of myricetin and 50 μM of spinacine were added 4 h prior to either (d) doxorubicin or (e) cisplatin. Cell viability was measured after overnight incubation using the MTT assay, and the viability of cells untreated with either myricetin or spinacine was set at 100%. Experiments were performed in triplicate, and error bars indicate the S.D.
Figure 5 Myricetin and spinacine (5) can re-sensitize HPV^+, but not HPV^−, cells to treatment with TRAIL. SiHa (2 × 10^4 cells per well) and C33A cells (1 × 10^4 cells per well) were seeded into a 96-well plate and allowed to incubate overnight, and then cells were pretreated in the presence or absence of (a) myricetin (100 μM) or (b) spinacine (50 μM) for 4 h. The indicated concentration of TRAIL along with cycloheximide (5 μg/ml) was added, and the cells were allowed to incubate overnight. Cell viability was measured by MTT assay, and the viability of cells untreated with TRAIL was set at 100%. Experiments were performed in triplicate, and error bars indicate the S.D.
The extracellular domain of human TRAIL was cloned into a pTriEx expression plasmid containing N-terminal Hisx6 tag. His-TRAIL was expressed in the E. coli BL-21 pLys strain and purified as previously described. Doxorubicin and cisplatin were purchased from Sigma. His-TRAIL, doxorubicin, and cisplatin were diluted in PBS to the desired concentration before using. To measure cell survival following treatment with TRAIL, cisplatin and doxorubicin, SiHa (2 × 10^4/well), C33A (1 × 10^4/well), and HNSCC cells (2 × 10^4/well) were seeded into 96-well plates and allowed to adhere overnight. Small molecules at the desired concentration were added and incubated at 37 °C for 4 h. As indicated, TRAIL, cisplatin, or doxorubicin was then added. The TRAIL treatment group contained cycloheximide (5 μg/ml) to inhibit de novo protein synthesis, and the cells were incubated for 16 h prior to measuring cell viability by the MTT assay preformed as described previously.[38] All experiments were repeated at least three times (three biological replicates, carried out on different days), with each experimental group measured in triplicate within each of these individual experiments. Data presented are from a representative experiment.

[2] = counter-screen, bead-based assay, 1.4 μM–3.2 mM tested

T2 sequence (P03126 whole entry): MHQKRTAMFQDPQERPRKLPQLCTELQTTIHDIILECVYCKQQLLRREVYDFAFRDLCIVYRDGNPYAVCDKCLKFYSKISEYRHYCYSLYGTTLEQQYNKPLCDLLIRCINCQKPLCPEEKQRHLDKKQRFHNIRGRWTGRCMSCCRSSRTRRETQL
T1 sequence (P03126 whole entry): as above
Sequence of GST-caspase 8/His-caspase 8 (Q14790 1-184): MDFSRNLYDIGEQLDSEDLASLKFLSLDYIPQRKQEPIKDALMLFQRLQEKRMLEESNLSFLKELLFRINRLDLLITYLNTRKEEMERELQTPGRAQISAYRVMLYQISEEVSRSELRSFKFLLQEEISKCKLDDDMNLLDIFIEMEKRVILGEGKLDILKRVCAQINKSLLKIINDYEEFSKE

Row | SMILES | EC50 ([1]; counter-screen, bead-based assay, 1.4 μM–3.2 mM tested, read-out: EC50 for GST-caspase 8/His-caspase 8 interaction) | EC50 (GST-E6/His-caspase 8) | EC50 (GST-E6/His-E6AP) | EC50 [1] | EC50 for GST-caspase 8/His-caspase 8 interaction [1, 2] | EC50 for GST-E6/His-caspase 8 interaction (GST-E6/His-caspase 8) | EC50 for GST-E6/His-E6AP interaction (GST-E6/His-E6AP) | EC50 for TRAIL-induced apoptosis (SiHa cells)
1 | NCCCn1ccc2ccccc21 [compound 1, 3-(1H-indol-1-yl)propan-1-amine methanesulfonate] | 830 µM | 630 µM | 670 µM |  |  |  |  | 
2 | c1ccc2[nH]cnc2c1 [compound 2, benzimidazole] |  | 1040 µM | 1480 µM | 1050 µM |  |  |  | 
3 | OCn1cnc2ccccc21 [compound 3, 1H-benzimidazole-1-methanol] |  |  |  |  | No Inhibition | No Inhibition | No Inhibition | No sensitization
4 | COCc1nc2ccccc2[nH]1 [compound 4, 2-(methoxymethyl)-1H-benzimidazole] |  |  |  |  | No inhibition | No inhibition | No inhibition | 
